Measurements from patent US20240000872A1, “NOVEL BACTERIOPHAGE THAT LYSES ACINETOBACTER GENUS BACTERIA HAVING RESISTANCE TO ANTIBIOTICS” (priority 2020, published 2024).

System: Acinetobacter baumannii strains
Experiment: Antibiotic susceptibility test (CLSI disk diffusion test method, read per CLSI 2016)
Type: cell-based
Design: antibiotic susceptibility test value / susceptibility test value (number given before S/I/R) / antibiotic susceptibility value: unit not given here
Experimental: (§1) Strain identification was performed using a kit such as AT 32 GN system (bioMérieux, Marcy l'Etoile, France). […] In Table 2 below, S, I, and R are the results obtained by evaluating susceptibility to the antibacterial agents, in which ‘S’ means susceptible, ‘I’ means intermediate, and ‘R’ means resistant.
as §1, with “as ATB” for “as AT”, “system (bioMédrieux,” for “system (bioMérieux,”, “Table 6” for “Table 2”
as §1, with “as ATB” for “as AT”, “Table 10” for “Table 2”, “susceptible, T” for “susceptible, ‘I’”

piperacillin-tazobactam
antibiotic susceptibility test value (host strain YMC14/01/U318): 128 | antibiotic susceptibility class (host strain YMC14/02/L18): R | antibiotic susceptibility test value (host strain YMC14/02/L18): 128 | antibiotic susceptibility class (host strain YMC14/02/P47): R | antibiotic susceptibility test value (host strain YMC14/02/P47): 128 | antibiotic susceptibility class (host strain YMC14/02/R1860): R | antibiotic susceptibility test value (host strain YMC14/02/R1860): 128 | antibiotic susceptibility class (host strain YMC14/02/R2417): R | antibiotic susceptibility test value (host strain YMC14/02/R2417): 128 | antibiotic susceptibility class (host strain YMC14/02/R2599): R | antibiotic susceptibility test value (host strain YMC14/02/R2599): 128 | antibiotic susceptibility class (host strain YMC14/02/R2668): R | antibiotic susceptibility test value (host strain YMC14/02/R2668): 128 | antibiotic susceptibility class (host strain YMC14/02/R2758): R | antibiotic susceptibility test value (host strain YMC14/02/R2758): 128 | antibiotic susceptibility class (host strain YMC14/02/R2781): R | antibiotic susceptibility test value (host strain YMC14/02/R2781): 128 | antibiotic susceptibility class (host strain YMC14/02/R3106): R | antibiotic susceptibility test value (host strain YMC14/02/R3106): 128 | antibiotic susceptibility class (host strain YMC14/02/R3419): R | antibiotic susceptibility test value (host strain YMC14/02/R3419): 128 | antibiotic susceptibility class (host strain YMC14/02/U1607): R | antibiotic susceptibility test value (host strain YMC14/02/U1607): 128 | antibiotic susceptibility class (host strain YMC14/03/L9): R | antibiotic susceptibility test value (host strain YMC14/03/L9): 128 | antibiotic susceptibility class (host strain YMC14/03/P471): R | antibiotic susceptibility test value (host strain YMC14/03/P471): 128 | antibiotic susceptibility class (host strain YMC14/03/R122): R | antibiotic susceptibility test value (host strain YMC14/03/R122): 128 | antibiotic susceptibility class (host strain YMC14/03/R217): R | antibiotic susceptibility test value (host strain YMC14/03/R217): 128 | antibiotic susceptibility class (host strain YMC14/03/R380): R | antibiotic susceptibility test value (host strain YMC14/03/R380): 128 | antibiotic susceptibility class (host strain YMC14/03/R618): R | antibiotic susceptibility test value (host strain YMC14/03/R618): 128 | antibiotic susceptibility class (host strain YMC14/03/R2144): R | antibiotic susceptibility test value (host strain YMC14/03/R2144): 128 | antibiotic susceptibility class (host strain YMC14/03/U4616): R | antibiotic susceptibility test value (host strain YMC14/03/U4616): 128 | antibiotic susceptibility class (host strain YMC14/04/R1078): R | antibiotic susceptibility test value (host strain YMC14/04/R1078): 128 | antibiotic susceptibility class (host strain YMC14/04/R1080): R | antibiotic susceptibility test value (host strain YMC14/04/R1080): 128 | antibiotic susceptibility S/I/R (host strain YMC14/06/R2359): R | antibiotic susceptibility value (host strain YMC14/06/R2359): 128 | susceptibility category (S/I/R) (host strain YMC14/06/R2359): R | susceptibility test value (number given before S/I/R) (host strain YMC14/06/R2359): 128 | antibiotic susceptibility S/I/R (host strain YMC14/08/R1169): R | antibiotic susceptibility value (host strain YMC14/08/R1169): 128 | susceptibility category (S/I/R) (host strain YMC14/08/R1169): R | susceptibility test value (number given before S/I/R) (host strain YMC14/08/R1169): 128 | antibiotic susceptibility S/I/R (host strain YMC14/08/T90): R | antibiotic susceptibility value (host strain YMC14/08/T90): 128 | susceptibility category (S/I/R) (host strain YMC14/08/T90): R | susceptibility test value (number given before S/I/R) (host strain YMC14/08/T90): 128 | antibiotic susceptibility S/I/R (host strain YMC15/02/R436): R | antibiotic susceptibility value (host strain YMC15/02/R436): 128 | susceptibility category (S/I/R) (host strain YMC15/02/R436): R | susceptibility test value (number given before S/I/R) (host strain YMC15/02/R436): 128 | antibiotic susceptibility S/I/R (host strain YMC15/02/T28): R | antibiotic susceptibility value (host strain YMC15/02/T28): 128 | susceptibility category (S/I/R) (host strain YMC15/02/T28): R | susceptibility test value (number given before S/I/R) (host strain YMC15/02/T28): 128 | antibiotic susceptibility S/I/R (host strain YMC15/03/R1604): R | antibiotic susceptibility value (host strain YMC15/03/R1604): 128 | susceptibility category (S/I/R) (host strain YMC15/03/R1604): R | susceptibility test value (number given before S/I/R) (host strain YMC15/03/R1604): 128 | antibiotic susceptibility S/I/R (host strain YMC15/09/R1869): R | antibiotic susceptibility value (host strain YMC15/09/R1869): 128 | susceptibility category (S/I/R) (host strain YMC15/09/R1869): R | susceptibility test value (number given before S/I/R) (host strain YMC15/09/R1869): 128 | antibiotic susceptibility S/I/R (host strain YMC16/01/P11): R | antibiotic susceptibility value (host strain YMC16/01/P11): 128 | susceptibility category (S/I/R) (host strain YMC16/01/P11): R | susceptibility test value (number given before S/I/R) (host strain YMC16/01/P11): 128 | antibiotic susceptibility S/I/R (host strain YMC16/01/R123): R | antibiotic susceptibility value (host strain YMC16/01/R123): 128 | susceptibility category (S/I/R) (host strain YMC16/01/R123): R | susceptibility test value (number given before S/I/R) (host strain YMC16/01/R123): 128 | antibiotic susceptibility S/I/R (host strain YMC16/01/R198): R | antibiotic susceptibility value (host strain YMC16/01/R198): 128 | susceptibility category (S/I/R) (host strain YMC16/01/R198): R | susceptibility test value (number given before S/I/R) (host strain YMC16/01/R198): 128 | antibiotic susceptibility S/I/R (host strain YMC16/01/R353): R
